Data reported in US20240100023A1, “Compositions and Methods For Treating Spinal Cord Injuries” (priority 2020, published 2024).
“Also recorded” adds a separate entry of the source.

Experiments:
[1] = tested on: Swiss Webster mice; experiment: PTZ proconvulsant test; type: in vivo, Mouse; conditions: 30 mg/kg or less p.o., 30 minutes before PTZ infusion
Procedure: Follow on studies of CX717 and 1739 are continuing, employing additional well-known models for SCI drug efficacy, coupled with a variety of ongoing safety studies. Preliminary safety studies already completed have included a range of toxicity studies focusing on critical convulsant risks widely observed for previously-studied ampakines. Using the well-known PTZ Proconvulsant test, non-GLP safety studies were conducted to examine proconvulsant activity of CX717. Swiss Webster mice (n=12/group) were dosed with CX717 (3, 10 or 30 mg/kg p.o.), vehicle (0.5% methocel p.o.) or a positive control, CGS8216 (10 mg/kg in 70% PEG300: 30% water i.p.). Thirty minutes later, the GABA-A antagonist, pentylenetetrazol (PTZ) was infused in the tail vein until tonic seizures were observed. The time at which the first clonic and tonic seizure was observed was noted and used to determine the dose of PTZ necessary to induce both clonic and tonic seizure.

[2] = tested on: adult patients with Attention-Deficit Hyperactive Disorder (ADHD); experiment: Phase 2 randomized, double-blind, 2-period crossover study in adult ADHD; type: in vivo, human; conditions: for ADHD-RS hyperactivity subscale mean score: ITT
Procedure: *This phase 2 study evaluated the efficacy, tolerability and safety of CX717 in the treatment of adult patients with Attention-Deficit Hyperactive Disorder (ADHD). The study was designed and executed as a randomized, double-blind, multi-center, 2-period crossover study comparing 2 doses of CX717 (200 mg, or 800 mg, BID) with placebo. Each treatment period lasted 3 weeks with a 2-week washout in between. Subjects met DSM-IV criteria for adult ADHD and had moderate to severe symptoms. The primary efficacy measure was the change from baseline on the ADHD Rating Scale (ADHD-RS) with adult ADHD prompts. A total of 68 male subjects, who were 19 to 50 years old and met criteria of Adult ADHD as defined by DSM IV, were randomized After accounting for early study dropouts, 51 subjects (75%) returned for efficacy assessments and completed both treatment periods (intent-to-treat population). […] Treatment with CX717 was well tolerated with no clinically significant changes in cardiovascular and other safety parameters with either dose. Sleep disturbances and headache were the most frequently reported adverse events.
The present study further examined the clinical efficacy, tolerability and safety of CX717 as a drug treatment for adults with ADHD. Eligible subjects were randomized to 1 of 4 possible treatment sequences in which they received placebo (P) and either high dose (H) or low dose (L) of active treatment in random order (PL, PH, LP, and HP). Each treatment period was 3 weeks in duration with a 2-week washout in between. The study design was modeled after several similarly published ADHD studies with atomoxetine and stimulants, with sample sizes in the mid-20s. Since this is the first such study with CX7171 in ADHD, it is assumed that efficacy would be achieved using historical assumptions in effect size, therefore, a total of 60 subjects were to be randomized.
All patients met DSM-IV criteria for adult ADHD, established by the Adult ADHD Clinical Diagnostic Scale (ACDS) Version 1.2. All patients gave written informed consent prior to enrollment and the conduct of the study was approved by either the […] Review Board (IRB) at each site or by the central IRB. Each subject had at least moderately severe ADHD symptoms (ADHD-RS score of ≥22; Clinician's Global Impression of Severity [CGI-S] score of ≥4). Each subject was male, and between 18-50 years old, inclusively. Male patients were selected because the necessary reproductive toxicology studies that would have allowed women of childbearing potential to be included in the study had not been completed.
Subjects were excluded if they were taking medication specifically for treatment of ADHD symptoms (e.g., stimulants, atomoxetine, tricyclic antidepressants, or bupropion). ADHD treatments were discontinued (stimulants for 2 weeks and non-stimulant for 4 weeks) prior to the Period 1 baseline visit. Subjects were also excluded if they were taking antidepressants, anticonvulsants, or antipsychotics.
CX717 capsules were administered orally as 200 mg BID or 800 mg BID doses. Matching placebo capsules were identical in appearance to the capsules containing active drug, and were administered orally. The study was divided into a series of periods: screening period—up to 4 weeks, treatment period 1-3 weeks; wash-out period—2 weeks; treatment period 2-3 weeks; follow-up period—approximately 1 week.
ADHD recovery drug efficacy was assessed using the Adult ADHD Rating Scale (DuPaul, 1998) with prompts ([…]) (Adler & Cohen, 2004). The primary efficacy outcome measure was the comparison of each dose of CX717 versus placebo on the change from baseline in ADHD symptoms as measured by the ADHD-RS at Week 3. Secondary efficacy parameters included comparisons of each dose of CX717 versus placebo for the ADHD-RS Inattentiveness Subscale Score of the ADHD-RS.
Safety was evaluated by adverse events (AEs), clinical laboratory tests, vital signs, physical examination, and electrocardiograms (ECGs). […]

[3] = tested on: non-selective alpha1 adrenergic receptor; experiment: Alpha1 adrenergic receptor radioligand binding; conditions: 100 μM
[4] = high dose (800 mg BID), after 3 weeks

Row | SMILES | Dose of PTZ required to elicit a seizure (proconvulsant activity) [1] | ADHD-RS outcome measures, low dose versus placebo ([2]; 200 mg BID) | ADHD-RS total and subscales, high dose versus placebo, repeated measures analysis ([2]; 800 mg BID, at endpoint) | ADHD-RS hyperactivity subscale mean score ([2]; active dose (both doses), last value) | Difference from placebo in mean change of ADHD-RS total score [2, 4] | Mean change from baseline of ADHD-RS total score [2, 4] | ADHD-RS hyperactivity subscale mean score ([2]; high dose, Week 1) | ADHD-RS hyperactivity subscale mean score ([2]; high dose, Week 3) | ADHD-RS hyperactivity subscale mean score ([2]; high dose, last value) | Inhibition of reference ligand binding, non-selective alpha1 adrenergic receptor [3]
1 | O=C(c1ccc2nonc2c1)N1CCOCC1 [CX717, 1-(benzofurazan-5-ylcarbonyl)morpholine] | did not decrease the dose of PTZ required to elicit a seizure | no statistically significant differences; also recorded: did not differ from placebo | superior efficacy compared to placebo | −4.10 | −4.73 | −9.95 | −4.22 | −5.68 | −5.57 | 
2 | CN(C(=O)c1ccc2nonc2c1)C1CCOCC1 [CX1739, N-Methyl-N-tetrahydro-2H-pyran-4-yl-[2,1,3]-benzoxadiazole-5-carboxamide] |  |  |  |  |  |  |  |  |  | 67%
